Data: patent US8722714B2, “Oxazolidine derivatives as NMDA antagonists” (The Honk Kong University of Science and Technology, priority 2008, dated 2014)

Key:
AKT = experiment: Western blot detection of AKT phosphorylation in rat cortical neurons; type: cell-based; conditions: 500 μM; rat cortical neurons 11 DIV
Experimental: Embryonic day 18 Sprague Dawley rat pups were decapitated, their brains removed, and the cortices were isolated. Tissues were triturated and isolated neurons were plated onto 60 mm plate and cultured with Neurobasal medium supplemented with 2% B27 (Invitrogen). Experiments were performed after 10-12 days in vitro (DIV). Cultured cells were stimulated with a test compound or vehicle control (DMSO) for different time intervals and then lysed with RIPA buffer including protease inhibitors. Cell lysates were stored at −80° C. before use. Before being loaded, the lysates were heated to 95° C. for 10 min, vortexed and centrifuged for 7 min at 15,000×g. Supernatants were electrophoresed on 10% SDS-polyacrylamide gel and transblotted to nitrocellulose membrane. The membranes were washed with 5% (w/v) powdered milk dissolved in PBS with 0.1% Triton X-100, followed by incubation at 4° C. overnight with rabbit polyclonal against phospho-ERK or phosphor-AKT (1:1000, Cell Signaling Technology). Next, the membranes were washed and incubated with horseradish peroxidase (HRP)-conjugated secondary antibodies. The signal was visualized using ECL Western Blotting Kit. Blots were stripped and probed for total ERK or AKT expression. […]
Western blot analysis was performed on the total cell lysates. Antibodies against phospho-ERK1/2 and phospho-AKT were used and detected with HRP conjugated secondary antibodies. […]

[1] = tested on: scopolamine-induced memory deficit mice; experiment: Morris Water Maze in scopolamine-induced memory deficit mice; type: in vivo; conditions: scopolamine 4 mg/kg i.p.
Experimental: 6-8 week old outbred male I.C.R. mice, weighing 25-35g were housed two per cage in a climatically controlled animal room (23-25° C.) under 12 hours light/dark cycling. The animals were allowed access to water and food ad lib. The mice used for the experiment were brought to particular laboratory conditions for two days. All the experiments were conducted between 14:00 and 18:00. Scopolamine hydrobromide (Sigma, USA) was dissolved in saline in 4 mg/kg and administered in a volume of 10 ml/kg body weight. The experimental mice were randomly assigned into 3 groups, each consisting of 12 mice with similar mean body weights and age. Test sample was dissolved in physiological saline before the experiments each day. Scopolamine was administered through intraperitoneal injection (i.p.) at 30 minutes before the swimming tasks to induce memory deficit. Oral administrations (p.o.) of the test compound, or saline (0.9%) was started at the first day of the task and administrated according to a volume of 10 ml/kg body weight. Oral drug administrations were 45 minutes before the swimming tasks and conducted daily for 4 consecutive days until the end of the task.
Each mouse was subjected to 4 trials per day for 4 consecutive days. […] The student t-test with repeated measures was used to analyze latency values, and calculated as the mean latency periods for each mouse. Data are expressed as means±S.E.M, *=P<0.05 and **=P<0.005 versus scopolamine.
Scopolamine (SCOP; 4 mg/kg) was first administered intra-peritoneally to mice to impair their memories. […] On each day, the time taken for the mice to detect the hidden platform in the water maze was measured, in seconds. Measurements were calculated as the mean latency periods for each mouse; n=24. Data are expressed as mean±s.e.m. and compared to Saline/SCOP group. […]
In FIG. 13, mice were first orally administered LC-24 (30 mg/kg), scopolamine (4 mg/kg) was i.p. administered to mice 15 min to impair their memories. […] On each day, the time taken for the mice to detect the hidden platform in the water maze was measured, in seconds. […]

[2] = tested on: rat primary cortical neurons; experiment: Immunocytochemical analysis of neurons after NMDA insult; type: cell-based; conditions: compound 10 μg/ml; beta-tubulin type III and DAPI stain
Experimental: Primary cortical and hippocampal neurons were prepared from embryonic day 18 (E18) Sprague-Dawley rats. Neurons were plated on 35-mm dishes (NUNC) at a density of 1×10^6 cells per plate using Neurobasal medium (Invitrogen) supplemented with 2% B27 (Invitrogen). Neurons at 11-12 days in vitro (DIV) were subjected to treatment with the test compounds. Neurons were pretreated with the test compound for 2 hours prior to NMDA treatment. 0.1 μM (+)-MK-801 Hydrogen Maleate (Sigma) was added as a positive control. Briefly, the neurons were rinsed with Locke's solution (5 mM potassium chloride, 128 mM sodium chloride, 2.7 mM calcium chloride, 1 mM di-sodium hydrogen orthophosphate, 5 mM HEPES and 10 mM glucose in Milli-Q water) without Mg^2+, and incubated with addition of glycine (10 μM) for 15 minutes. After the incubation, the neurons were co-treated with the test compound (dissolved in Locke's plus glycine solution) and NMDA (20 μM; Sigma) for 20 minutes. Neurons were rinsed with Locke's plus Mg^2+ and replaced with fresh growth medium. […] Neurons were then analyzed by a fluorescence microscope using a 40× objective (DMRA; Leica). […]
LC-02 (10 μg/mL) protects embryonic rat primary cortical neurons against NMDA excitotoxicity. Neurites were immunostained with beta-tubulin type III antibody and detected with FITC-conjugated antibody. […]

SMILES: CC[C@H]1N[C@@H](CC(C)C)C(CC)(CC)O1 [LC-02]
- phosphorylation of AKT (AKT): phosphorylated within 5-15 min
- escape latency ([1]; 30 or 100 mg/kg oral): decreases escape latencies
- protection against NMDA excitotoxicity and apoptosis (immunostaining) [2]: protected the cells from excitotoxicity and the resulting apoptosis at a level similar to control cells

SMILES: CCCC1(CCC)O[C@@H](CC)N[C@H]1CC(C)C [LC-06]
- escape latency ([1]; 100 mg/kg oral, 4 days): reversed the increased escape latency induced by scopolamine

SMILES: CC[C@H]1N[C@@H](Cc2ccccc2)C(CC)(CC)O1 [LC-24]
- escape latency ([1]; 30 mg/kg oral, 4 days): reduced the increased escape latency induced by scopolamine
